Our source for the melting point values is a melting point compilation (Tetko et al.; mined from patent text by program, amines drawn as free bases though some values may be those of a salt).

The term melting point denotes the temperature, or range, at which the solid turns liquid.

Some results are limits rather than exact numbers.

Consider `CCCCCCCCCNC(=O)Nc1ccccc1C(=O)NC1CCN(C(c2ccccc2)c2ccccc2)CC1`, for which the melting point lay within 149 to 150 °C.

For `CC(=O)OCC1Cc2cc(I)ccc2N1` (stereo not drawn), the melting point lay within 64 to 66 °C.

`Nc1nc2ccc(CCN3CCC(Oc4ccccc4)CC3)cc2s1` registered a melting point of 164 to 167 °C.

Regarding `CCC(=O)NCC=C1CCc2ccc3ncoc3c21`, the melting point lay in the range of 148 to 150 °C.

As for `CCCCCCCCOc1c(OC)cc(N)c2ncccc12`, the melting point is 63 to 64 °C.

The molecule `O=C(O)[C@H](CCc1ccccc1)Oc1ccc(-c2ccco2)cc1` had a melting point of 140 to 142 °C.

Take `Oc1ccc(N2CCN(c3ccncc3)CC2)cc1`: the melting point was 288 to 290 °C.

Molecule `CS(=O)(=O)Nc1cc(C(O)CNCCCCCCOCC/C=C/c2ccc(F)cc2)ccc1O` (stereo not drawn) registered a melting point of 79 to 80 °C.

Regarding `CCOC(=O)C(CC)=C(C)NC(=O)Nc1cc(OC(C)C)c(Cl)cc1F`, the melting point was in the range of 112 to 114 °C.

Molecule `COc1ccc([C@H](C)NC(=O)COc2cc(C(F)(F)F)c3c(-c4ccccc4)nn(C)c3n2)cc1` had a melting point of 172 to 174 °C.

`CC(=O)Oc1cccc(C(=O)Nc2ccc3ccc(Cl)nc3n2)c1` yielded a melting point of 207 °C.

Turning to `COc1cc2c(cc1OC)CN(c1cc(Cl)ncn1)CC2`, the melting point lay within 88 to 89 °C.

In turn, `OC1Cc2ccc3ccccc3c21` (stereo not drawn) came in with a melting point of 96 to 100 °C.

Take `CCN(C(C)=O)c1cccc(-c2ccc3nncn3n2)c1`: the melting point is 122 to 127 °C.

As to `Oc1ccc2c(c1)COc1c-2cc2ccc(O)cc2c1-c1ccccc1`, the melting point lay within 225 to 227 °C.

Molecule `CCOC(=O)C1=C(C)NC(N=CN(C)C)=C(C(=O)OCC)C1c1ccccc1Cl` (stereo not drawn) gave a melting point of 140 °C.

`CCOC(=O)C1Oc2ccccc2Cc2ccccc2O1` gave a melting point of 86.5 to 88.5 °C.

Take `Cc1oc(-c2ccccc2)nc1COc1ccc(CON=C(CCC(=O)O)c2ccc(F)cc2)cc1`: the melting point was in the range of 139 to 140 °C.

Molecule `NC(=O)C1CCCN(C(c2ccccc2)c2ccccc2)C1` (stereo not drawn) came in with a melting point of 86 to 87 °C.

As to `CCOC(=O)Nc1sc(-c2ccc([N+](=O)[O-])cc2)c(C)c1C(=O)OCC`, the melting point was in the range of 130 to 131 °C.

Molecule `CN(CC(=O)O)C[C@@H]1CC(c2ccc(-c3ccc(N4C[C@H](Cn5ccnn5)OC4=O)cc3F)cn2)=NO1` came in with a melting point of 212 to 218 °C.

On to `CCN(CC1Cc2ccccc2N1CC)C(=N)N` (stereo not drawn), for which the melting point is 230 °C.

Turning to `O=C(Nc1nc(C(F)(F)F)c(Br)s1)c1ccc(Cl)c(Cl)c1`, the melting point was 191 to 192 °C.

Molecule `CCC(=O)N(CC)c1cccc(-c2ccnc3c(C#N)cnn23)c1` registered a melting point of 161 to 162 °C.

As to `CNC(=O)[C@H](CCCCNC(=O)OCc1ccccc1)NC(=O)OC(C)(C)C`, the melting point was in the range of 100 to 102 °C.

`CC1(C)CCC(C)(C)c2cc(-c3cnn(-c4ccc(C(=O)O)cc4)c3)ccc21`: the melting point is 229 to 232 °C.

The molecule `COC1CCc2c(Nc3ccc(C#N)cc3)ncnc21` (stereo not drawn) returned a melting point of 167 to 169 °C.

Regarding `COc1ccc(C(C)(C)C)cc1NC(=O)Nc1ccc(C)cc1N`, the melting point lay in the range of 165 to 166 °C.

In turn, `Cc1ccc(-c2c(Cl)nc(-c3cccs3)nc2Cl)cc1` had a melting point of 120 °C.

`CCn1cc(C(=O)O)c(=O)c2cc(F)c(N3CC4CC3CN4Cc3ccccc3)c(F)c21` (stereo not drawn) displayed a melting point of 195 to 198 °C.

`C#CCCC(O)=C(C#N)C(=O)Nc1ccc(Cl)c(C)c1` had a melting point of 147 °C.

`O=C(O)c1nc(Cl)sc1Cl` registered a melting point of 191 °C.

In turn, `COc1ncc(Cc2n[nH]c(=O)c3ccccc23)cc1Br` registered a melting point of 227 to 228 °C.

Turning to `COC12CC(C)(c3nnc(-c4cncc(Br)c4)[nH]3)CN(C)C1Cc1c[nH]c3cccc2c13` (stereo not drawn), the melting point fell in the range of 163 to 168 °C.

As for `CCn1cc(CN(C(=O)Nc2c(C)cccc2C)c2ccc(C(C)C)cc2)cn1`, the melting point worked out at 108 °C.

As for `COC(=O)C(=CNc1ccc(O)cc1)C(=O)C=CC1CC=CCC1` (stereo not drawn), the melting point fell in the range of 151 to 153 °C.

The molecule `C#CCc1c(C)nc2c(OCc3c(C)cccc3NC(=O)OC)cccn12` came in with a melting point of 179 to 180 °C.

Molecule `CN1CCCC(c2nc3cccnc3[nH]2)C1` (stereo not drawn) yielded a melting point of 141 to 144 °C.

In turn, `COC(=O)Cc1cc(Br)c(S(=O)(=O)c2ccc(O)c(C(C)C)c2)c(Br)c1` yielded a melting point of 159 to 160 °C.

On to `COC(=O)[C@@H]1C[C@H](OC(=O)c2ccccc2)CN1C(=O)OC(C)(C)C`, for which the melting point was 89 to 90 °C.

Molecule `COc1cccc(-n2c(-c3sc(Nc4ccc(Cl)cc4)nc3C)nc3ccccc3c2=O)c1` yielded a melting point of 243 to 244 °C.

For the molecule `C=Cn1ccnc1C=O`, the melting point lay within 48 to 51 °C.

For `CC1Cc2c(-n3nc(C#N)c(=O)[nH]c3=O)ccc(Cl)c2O1` (stereo not drawn), the melting point lay in the range of 244 to 245 °C.

In turn, `COC(=O)c1cccc(NC(=O)NCC(=O)N(CC(=O)N2CCCC2)c2ccccc2C(=O)c2ccccc2)c1` registered a melting point of 189 to 194 °C.

In turn, `O=C1CCC(N2C(=O)c3cccc(CNC(=O)c4cccc(C(F)(F)F)c4F)c3C2=O)C(=O)N1` (stereo not drawn) yielded a melting point of 155 to 157 °C.

For `COc1ccccc1C1CCC(=O)CC1(O)C(=O)O` (stereo not drawn), the melting point was determined as 204 °C.

Regarding `COc1cc(N)ccc1-c1ccc(-c2ccc(N)cc2OC)o1`, the melting point is 201 to 202 °C.

Turning to `CC1=CC(=O)C=C2CCC3C4CCC(=O)C4(C)CCC3C12C` (stereo not drawn), the melting point fell in the range of 165 to 167 °C.

`COC(=O)C1=C(O)C(=O)O[C@@H]1C` returned a melting point of 94 to 96 °C.

Consider `Brc1ccn2nc(Br)nc2c1`, for which the melting point lay in the range of 183 to 184 °C.

On to `C=CCNC(=O)n1nc(O)cc1C`, for which the melting point lay in the range of 80 to 83 °C.

`O=C1Nc2ncccc2CN1C1CCN(Cc2ccccc2)CC1` registered a melting point of 187 °C.

`Nc1c(C(F)(F)F)cc2[nH]c(=O)c(=O)[nH]c2c1Cl` yielded a melting point greater than 360 °C.

`OCC1CCCc2scnc21` (stereo not drawn) displayed a melting point of 74 to 75 °C.

The molecule `CCOC(=O)C1=C(C)Nc2n[nH]cc2C1c1cccc2nonc12` (stereo not drawn) came in with a melting point of 228 °C.

For the molecule `CN(C)C(=O)CC1CN=C(c2cc3cc(Oc4ccc(S(C)(=O)=O)nc4)ccc3[nH]2)S1` (stereo not drawn), the melting point fell in the range of 190 to 191 °C.

Consider `CCc1ncnc2ccc(CCc3cc(OC)ccc3OC)cc12`, for which the melting point is 74 °C.

`CCOC(=O)c1cc(C)n(-c2cccc(Br)c2)c1-c1ccccc1` gave a melting point of 118 to 119 °C.

Turning to `CCCCc1nc(Cl)c(C(=O)O)n1Cc1ccc2oc(-c3ccccc3-c3nnn[nH]3)c(OC)c2c1`, the melting point lay within 140 to 144 °C.

In turn, `COC(=O)COc1ccc(OC)cc1C=O` had a melting point of 74 to 75 °C.

Take `O=C(O)c1ccc(-c2nc(-c3ccc(Cl)cc3)cs2)cc1`: the melting point was 284 to 285 °C.

On to `COc1ccc(Cl)cc1C(=O)NCCc1ccc(Sc2ccccc2)c(S(N)(=O)=O)c1`, for which the melting point was found to be 178 °C.

The molecule `COc1cc(N2C(=O)CCC2=O)ccc1OCCCN1CCN(c2ccccc2)CC1` gave a melting point of 166 to 167 °C.

As for `CC(=O)NC(C)(C)Cc1ccc(N(C)C)cc1`, the melting point was in the range of 156 to 157 °C.

In the case of `N#CC(C#N)=CN(N=C(C#N)C#N)c1cccc(F)c1`, the melting point lay in the range of 134 to 135 °C.

`Cc1cc(S(=O)(=O)Nc2ccc(N)cc2)c2c(C)ccc(C(C)C)cc1-2` displayed a melting point of 88 to 90 °C.

Molecule `CCOC(=O)Cc1ccc2c(c1)sc1ccccc12` had a melting point of 60 to 62 °C.

Molecule `CN(C1CCSCC1)S(=O)(=O)c1ccc(Nc2nccc(Nc3ccc(F)cc3)n2)cc1` came in with a melting point of 182 °C.

`CS(=O)CCNC(N)=O` (stereo not drawn) displayed a melting point of 88 °C.

For `Cc1ccc(C2CCN(C(=O)Nc3ccc4cc(CN5CCCCC5)ccc4c3)CC2)cc1`, the melting point lay in the range of 227 to 228 °C.

In the case of `CNC(=O)C(Br)CCBr` (stereo not drawn), the melting point lay in the range of 48 to 49 °C.

On to `CC(C)(C)CNc1cc(N2CCNCC2)nc(NC(C)(C)C)n1`, for which the melting point was in the range of 120 to 124 °C.

Take `COc1ccccc1C=CCN1CCc2nc(N)sc2CC1`: the melting point is 80 to 84 °C.

On to `O=C(CCl)Nc1ccc2c(c1NC(=O)c1ccno1)C(=O)c1ccccc1C2=O`, for which the melting point is 212 to 213 °C.

In the case of `Brc1ccc2c3nc4ccccc4[nH]c-3nc2c1`, the melting point was greater than 300 °C.

The molecule `COC(C)=C(Cl)C(=O)Nc1ccccc1` showed a melting point of 100 °C.

Consider `COC(=O)C=Cc1ccc2[nH]c(C)cc2c1`, for which the melting point was 172 to 173 °C.

`Cc1cc(-c2nc3ccccc3[nH]2)n[nH]1` yielded a melting point of 322 to 324 °C.

For `CCCCCCCc1ccc(-c2ccc(C(=O)O)cc2)cc1`, the melting point worked out at 163 °C.

In turn, `CCNc1nc(-c2cccc(C3=Nc4cc(N(C)C)c(Cl)cc4NC(=O)C3)c2)cs1` displayed a melting point of 122 to 123 °C.

On to `CCOC(=O)c1ccc(N2CCC(NC[C@H](O)COc3ccc(O)c(S(=O)(=O)NC)c3)CC2)cc1`, for which the melting point worked out at 87 °C.

Molecule `CC1=C(c2ccccc2)CCC(=O)N1` had a melting point of 310 to 330 °C.

Molecule `Nc1c(I)cc(Cl)cc1[N+](=O)[O-]` registered a melting point of 134 to 135 °C.

In turn, `O=[N+]([O-])c1cccc(-c2csc(Nc3ccccc3C(F)(F)F)n2)c1` had a melting point of 182 °C.

`COc1ccc(-n2nc(CBr)cc2-c2ccc(C)cc2)cc1`: the melting point was 119 to 121 °C.

On to `N#Cc1ccc(Nc2ccncc2[N+](=O)[O-])cc1`, for which the melting point lay within 210 to 211 °C.

Molecule `CCOc1ccc(-c2ccc(OC(CC)CCN3CCN(c4cncs4)CC3)cc2)cc1` (stereo not drawn) showed a melting point of 149 to 150 °C.

`CCN(CC)C(=O)c1c(CO)cccc1[Si](C)(C)C` came in with a melting point of 81 to 82.5 °C.

On to `CCc1nc2c(N)nc3ccc(OCc4ccccc4)cc3c2n1CCCCNC(=O)c1ccccc1`, for which the melting point lay in the range of 226 to 230 °C.

On to `CCOC(=O)NNC1=Nc2sc(CC)cc2C(c2ccccc2Cl)=NC1`, for which the melting point amounted to 207 °C.

For the molecule `NS(=O)(=O)c1ccc(S(=O)(=O)N2CCC(=O)CC2)cc1Cl`, the melting point lay within 195 to 196 °C.

Take `CC(=O)OCC(O)(COC(C)=O)c1ccc(F)cc1F`: the melting point fell in the range of 70.5 to 71.5 °C.

`COc1ccc(Cl)cc1-c1cc(Cl)cc2c1OC(CN)C2` (stereo not drawn) returned a melting point of 174 to 176 °C.
